Experimental data published in patent US20240246918A1, “COMPOUNDS AND COMPOSITIONS AS EIF4E INHIBITORS AND THE USES THEREOF” (Ribometrix, Inc., priority 2022, published 2024).
Like-named read-outs stand apart in the source and are kept apart here.

How the values were obtained:
[1] = system: cyclin D1 protein levels in COLO 205 cells; test: Cyclin D1 cellular inhibition assay (HTRF, 6 hours); type: cell-based; settings: 6 hours of compound treatment, Cyclin D1 protein levels by HTRF, read-out: COLO 205 6 h Cyclin D1 TR-FRET IC50
Experimental: The effect of compound treatment on cyclin D1 protein levels in COLO 205 cells was assessed, as follows. Test compound plates were prepared with a Tecan D300e Digital Dispenser as 11-point concentration-response curves with a final DMSO concentration of 1%. COLO 205 (ATCC, CCL-222) colorectal tumor cells were seeded to assay-ready plates in RPMI-1640 medium supplemented with 10% FBS at 20,000 cells in a volume of 6 microliters per well. After 6 hours of compound treatment, cells were lysed and Cyclin D1 protein levels were assessed by an HTRF assay (PerkinElmer #64CYCD1ITPEG), according to the manufacturer's protocol. Time-resolved fluorescence was measured using a Clariostar Plus microplate reader (BMG Labtech) or equivalent. After normalization to the average of DMSO control and maximum inhibition control wells, concentration-response data were plotted and standard 4-parameter curve fitting (GraphPad Prism v9.4.1) was utilized to determine IC50 values.

human eIF4E protein = target: T1, human eIF4E protein (Homo sapiens, UniProt P06730); test: Biochemical competitive binding assay (TR-FRET competition, EDA-m7GDP-ATTO-647N probe); settings: read-out: hEIF4E TR-FRET IC50
T1 construct: purchased Novus NBP-45314
In short: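 IC50 values come from 4-parameter fits of the normalized 665/620 nm TR-FRET ratio. Compound was first incubated 15 min with 4 nM recombinant His-eIF4E bound to 2.5 nM Eu-anti-His antibody, then 15 min with 5 nM m7GDP-ATTO-647N tracer, in pH 7.5 HEPES buffer with 100 mM KCl, Tween-20 and BSA.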

[2] = system: COLO 205 colorectal tumor cells; test: Tumor cell viability inhibition assay (CellTiter-Glo 2.0, 72 hours); type: cell-based; settings: COLO 205 cell viability
In short: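 IC50 derived by 4-parameter fitting after normalizing luminescence to DMSO and max-inhibition wells. Compounds tested as 11 concentrations in 4-fold steps on COLO 205 cells seeded at 1500 per well in RPMI-1640/10% FBS; ATP content measured with CellTiter-Glo 2.0 after 72 h.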

T1 sequence (P06730 whole entry): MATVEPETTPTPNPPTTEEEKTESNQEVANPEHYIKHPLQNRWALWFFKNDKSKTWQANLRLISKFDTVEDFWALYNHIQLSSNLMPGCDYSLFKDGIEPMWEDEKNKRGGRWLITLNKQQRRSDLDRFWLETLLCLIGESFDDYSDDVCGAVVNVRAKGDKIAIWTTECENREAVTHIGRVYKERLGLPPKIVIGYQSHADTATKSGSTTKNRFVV

| Compound | IC50 [1] | IC50 (human eIF4E protein) | IC50 [2] | IC50 ([1]; Homo sapiens, COLO 205, 6 h) | IC50 ([2]; Homo sapiens, COLO 205, 72 h) |
| --- | --- | --- | --- | --- | --- |
| COC1CCN(C2CCc3nc(C)n(CCOc4ccc(Cl)cc4-c4cc(C)nc5c(C(=O)NS(C)(=O)=O)csc45)c(=O)c3C2)CC1 (single isomer, unassigned) [Compound 240] | 5 to 20 µM | < 0.1 µM | < 5 µM |  |  |
| Cc1cc(-c2cc(Cl)ccc2OCCn2c(C)nc3c(c2=O)C[C@@H](N2CCC[C@]4(C2)CC4(F)F)CC3)c2scc(C(=O)O)c2n1 (single isomer, unassigned) [Compound 140] |  | < 0.1 µM |  | < 5 µM | < 5 µM |
| Cc1cc(-c2cc(Cl)ccc2OCCn2c(C)nc3c(c2=O)C[C@H](N2CCC[C@@]4(C2)CC4(F)F)CC3)c2scc(C(=O)O)c2n1 (single isomer, unassigned) [Compound 139] |  | < 0.1 µM |  | < 5 µM | < 5 µM |
| Cc1csc(CN(C)C2CCc3nc(C)n(CCOc4ccc(Cl)cc4-c4cc(C)nc5c(C(=O)O)csc45)c(=O)c3C2)n1 (stereo not drawn) [Compound 182] |  | < 0.1 µM |  | < 5 µM | < 5 µM |
| Cc1cc(-c2cc(Cl)ccc2OCCn2c(C)nc3c(c2=O)CC(N2CCC(C(F)(F)F)CC2)CC3)c2scc(C(=O)O)c2n1 (stereo not drawn) [Compound 163] |  | < 0.1 µM |  | < 5 µM | < 5 µM |
| COC1CCN(C2CCc3nc(C)n(CCOc4ccc(Cl)cc4-c4cc(C)nc5c(C(=O)NCC(F)F)csc45)c(=O)c3C2)CC1 (stereo not drawn) [Compound 142] |  | 0.1 to 0.5 µM |  | > 20 µM | 5 to 20 µM |
| COC1CCN(C2CCc3nc(C)n(CCOc4ccc(Cl)cc4-c4cc(C)nc5c(C(=O)NS(C)(=O)=O)csc45)c(=O)c3C2)CC1 (single isomer, unassigned) [Compound 239] |  | < 0.1 µM |  | < 5 µM | < 5 µM |
| Cc1cc(-c2cc(Cl)ccc2OCCn2c(C)nc3c(c2=O)C[C@H](N(C)C[C@H]2C[C@](C)(O)C2)CC3)c2scc(C(=O)O)c2n1 (relative stereo) [Compound 210] |  | < 0.1 µM |  | > 20 µM | > 20 µM |
| Cc1cc(-c2cc(Cl)ccc2OCCn2c(C)nc3c(c2=O)CC(N(C)C[C@H]2C[C@@H](C(F)(F)F)C2)CC3)c2scc(C(=O)O)c2n1 (stereo partly drawn) [Compound 204] |  | < 0.1 µM |  | < 5 µM | < 5 µM |
| Cc1cc(-c2cc(Cl)ccc2OCCn2c(C)nc3c(c2=O)CC(N(C)Cc2ccnc(N)n2)CC3)c2scc(C(=O)O)c2n1 (stereo not drawn) [Compound 158, 7-(2-(2-(6-(((2-aminopyrimidin-4-yl)methyl)(methyl)amino)-2-methyl-4-oxo-5,6,7,8-tetrahydroquinazolin-3(4H)-yl)ethoxy)-5-chlorophenyl)-5-methylthieno[3,2-b]pyridine-3-carboxylic acid] |  | < 0.1 µM |  | > 20 µM | > 20 µM |
| Cc1cc(-c2cc(Cl)ccc2OCCn2c(C)nc3c(c2=O)CC(N2CC4(CC=C(F)CC4)C2)CC3)c2scc(C(=O)O)c2n1 (stereo not drawn) [Compound 162] |  | < 0.1 µM |  | < 5 µM | < 5 µM |
| Cc1cc(-c2cc(Cl)ccc2OCCn2c(C)nc3c(c2=O)CC(N2CCc4ncccc4C2)CC3)c2scc(C(=O)O)c2n1 (stereo not drawn) [Compound 180] |  | < 0.1 µM |  | < 5 µM | < 5 µM |
| Cc1cc(-c2cc(Cl)ccc2OCCn2c(C)nc3c(c2=O)C[C@@H](N(C)[C@H]2CC[C@](C)(O)CC2)CC3)c2scc(C(=O)NS(C)(=O)=O)c2n1 (single isomer, unassigned) [Compound 206] |  | < 0.1 µM |  | > 20 µM | > 20 µM |
| Cc1cc(-c2cc(Cl)ccc2OCCn2c(C)nc3c(c2=O)CC(N2CCC4(CC2)CC4)CC3)c2scc(C(=O)O)c2n1 (stereo not drawn) [Compound 192] |  | < 0.1 µM |  | < 5 µM | < 5 µM |
| Cc1cc(-c2cc(Cl)ccc2OCCn2c(C)nc3c(c2=O)C[C@H](N(C)[C@H]2CC[C@](C)(O)CC2)CC3)c2scc(C(=O)NS(C)(=O)=O)c2n1 (single isomer, unassigned) [Compound 207] |  | < 0.1 µM |  | > 20 µM | > 20 µM |
| Cc1cc(-c2cc(Cl)ccc2OCCn2c(C)nc3c(c2=O)CC(N(C)CC2CC(F)(F)C2)CC3)c2scc(C(=O)NCC(F)F)c2n1 (stereo not drawn) [Compound 150] |  | 0.5 to 5 µM |  | > 20 µM | 5 to 20 µM |
| COc1cc(CN(C)C2CCc3nc(C)n(CCOc4ccc(Cl)cc4-c4cc(C)nc5c(C(=O)O)csc45)c(=O)c3C2)ccn1 (single isomer, unassigned) [Compound 218] | < 5 µM | < 0.1 µM | 5 to 20 µM |  |  |
| Cc1cc(-c2cc(Cl)ccc2OCCn2c(C)nc3c(c2=O)CC(N2CCC(C4CC(F)(F)C4)CC2)CC3)c2scc(C(=O)O)c2n1 (stereo not drawn) [Compound 156] |  | < 0.1 µM |  | < 5 µM | < 5 µM |
| Cc1cc(-c2cc(Cl)ccc2OCCn2c(C)nc3c(c2=O)C[C@H](N2C[C@@H]4CC(F)(F)[C@@H]4C2)CC3)c2scc(C(=O)O)c2n1 (single isomer, unassigned) [Compound 146] |  | < 0.1 µM |  | < 5 µM | < 5 µM |
| COc1cc(CN(C)C2CCc3nc(C)n(CCOc4ccc(Cl)cc4-c4cc(C)nc5c(C(=O)O)csc45)c(=O)c3C2)ccn1 (single isomer, unassigned) [Compound 217] |  | < 0.1 µM |  | < 5 µM | < 5 µM |
| COC1[C@@H]2CC[C@H]1CN(C1CCc3nc(C)n(CCOc4ccc(Cl)cc4-c4cc(C)nc5c(C(=O)O)csc45)c(=O)c3C1)C2 (stereo partly drawn) [Compound 152] |  | < 0.1 µM |  | < 5 µM | < 5 µM |
| Cc1cc(-c2cc(Cl)ccc2OCCn2c(C)nc3c(c2=O)CC(N(C)C2CC4(C2)CC(F)(F)C4)CC3)c2scc(C(=O)O)c2n1 (stereo not drawn) [Compound 203] |  | < 0.1 µM |  | < 5 µM | < 5 µM |
| Cc1cc(-c2cc(Cl)ccc2OCCn2c(C)nc3c(c2=O)C[C@H](N(C)C[C@H]2C[C@H](C(F)(F)F)C2)CC3)c2scc(C(=O)O)c2n1 (single isomer, unassigned) [Compound 213] |  | < 0.1 µM |  | < 5 µM | < 5 µM |
| Cc1cc(-c2cc(Cl)ccc2OCCn2c(C)nc3c(c2=O)C[C@@H](N2C[C@@H]4CCC(F)(F)[C@@H]4C2)CC3)c2scc(C(=O)O)c2n1 (single isomer, unassigned) [Compound 169] |  | < 0.1 µM |  | < 5 µM | < 5 µM |
| Cc1cc(-c2cc(Cl)ccc2OCCn2c(C)nc3c(c2=O)CC(N(C)Cc2ccc(C(F)(F)F)cc2)CC3)c2scc(C(=O)O)c2n1 (stereo not drawn) [Compound 201, 7-(5-chloro-2-(2-(2-methyl-6-(methyl(4-(trifluoromethyl)benzyl)amino)-4-oxo-5,6,7,8-tetrahydroquinazolin-3(4H)-yl)ethoxy)phenyl)-5-methylthieno[3,2-b]pyridine-3-carboxylic acid] |  | < 0.1 µM |  | < 5 µM | < 5 µM |
| COC1CCN(C2CCc3nc(C)n(CCOc4ccc(Cl)cc4-c4cc(C)nc5c(C(=O)NC6CC(F)(F)C6)csc45)c(=O)c3C2)CC1 (stereo not drawn) [Compound 144] |  | 0.5 to 5 µM |  | > 20 µM | 5 to 20 µM |
| Cc1cc(-c2cc(Cl)ccc2OCCn2c(C)nc3c(c2=O)C[C@@H](N2C[C@@H]4CC(F)(F)[C@@H]4C2)CC3)c2scc(C(=O)O)c2n1 (single isomer, unassigned) [Compound 149] |  | < 0.1 µM |  | < 5 µM | < 5 µM |
